Assays:
Format in all cases: in vivo
[1] = system: Ipomoea hederaceae (IPOHE); assay: Pre-emergence biological efficacy, glasshouse, 1000 g/ha, evaluated after 13 days (100=total damage to plant; 0=no damage to plant); conditions: Ipomoea, 312 h, rate 1,000 g/ha, read-out: Percentage damage caused to weed species, pre-emergence, IPOHE
Method in brief: (§1)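 Glasshouse conditions were controlled at 24/16° C. day/night with a 14-hour photoperiod and 65% humidity; pots contained standard soil into which seeds had been sown, and plants were watered twice daily.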

[2] = system: Echinochloa crus-galli (ECHCG); assay: as above; conditions: Echinochloa crus-galli, 312 h, rate 1,000 g/ha, read-out: Percentage damage caused to weed species, pre-emergence, ECHCG
Method in brief: as §1

Setaria faberi (SETFA) [3] = assay: as above; conditions: Setaria faberi, 312 h, rate 1,000 g/ha, read-out: Percentage damage caused to weed species, pre-emergence, SETFA
Method in brief: as §1

[4] = system: Amaranthus retroflexus (AMARE); assay: as above; conditions: Amaranthus retroflexus, 312 h, rate 1,000 g/ha, read-out: Percentage damage caused to weed species, pre-emergence, AMARE
Method in brief: as §1

Solanum nigrum (SOLNI) [5] = assay: as above; conditions: Solanum nigrum, 312 h, rate 1,000 g/ha, read-out: Percentage damage caused to weed species, pre-emergence, SOLNI
Method in brief: as §1

[6] = system: Alopecurus myosuroides (ALOMY); assay: as above; conditions: Alopecurus myosuroides, 312 h, rate 1,000 g/ha, read-out: Percentage damage caused to weed species, pre-emergence, ALOMY
Method in brief: as §1

[7] = system: Ipomoea hederaceae (IPOHE); assay: Post-emergence biological efficacy, glasshouse, 500 or 1000 g/ha, evaluated after 13 days (100=total damage to plant; 0=no damage to plant); conditions: Ipomoea, 312 h, rate 1,000 g/ha, read-out: Percentage damage caused to weed species, post-emergence, IPOHE
Method in brief: (§2)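 Weed seeds were sown in standard soil in pots and the plants treated post-emergence. Afterwards they were grown on in a controlled glasshouse at 24/16° C. day/night with 14 hours light and 65% humidity, and watered twice daily.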

[8] = system: Echinochloa crusgaffi (ECHCG); assay: as above; conditions: Echinochloa, 312 h, rate 1,000 g/ha, read-out: Percentage damage caused to weed species, post-emergence, ECHCG
Method in brief: as §2

Setaria faberi (SETFA) [9] = assay: as above; conditions: Setaria faberi, 312 h, rate 1,000 g/ha, read-out: Percentage damage caused to weed species, post-emergence, SETFA
Method in brief: as §2

[10] = system: Amaranthus retroflexus (AMARE); assay: as above; conditions: Amaranthus retroflexus, 312 h, rate 1,000 g/ha, read-out: Percentage damage caused to weed species, post-emergence, AMARE
Method in brief: as §2

Solanum nigrum (SOLNI) [11] = assay: as above; conditions: Solanum nigrum, 312 h, rate 1,000 g/ha, read-out: Percentage damage caused to weed species, post-emergence, SOLNI
Method in brief: as §2

[12] = system: Alopecurus myosuroides (ALOMY); assay: as above; conditions: Alopecurus myosuroides, 312 h, rate 1,000 g/ha, read-out: Percentage damage caused to weed species, post-emergence, ALOMY
Method in brief: as §2

Structure (SMILES)	pest or weed control at 1000 g/ha [1] [%]	pest or weed control at 1000 g/ha [2] [%]	pest or weed control at 1000 g/ha (Setaria faberi (SETFA) [3]) [%]	pest or weed control at 1000 g/ha [4] [%]	pest or weed control at 1000 g/ha (Solanum nigrum (SOLNI) [5]) [%]	pest or weed control at 1000 g/ha [6] [%]	pest or weed control at 1000 g/ha [7] [%]	pest or weed control at 1000 g/ha [8] [%]	pest or weed control at 1000 g/ha (Setaria faberi (SETFA) [9]) [%]	pest or weed control at 1000 g/ha [10] [%]	pest or weed control at 1000 g/ha (Solanum nigrum (SOLNI) [11]) [%]	pest or weed control at 1000 g/ha [12] [%]
COC(=O)c1nc(-c2ccc(Cl)c(OC)c2F)cc2c1c(C)cn2C(=O)OC [Compound 38-64, 6-(4-Chloro-2-fluoro-3-methoxyphenyl)-1,4-di(methoxycarbonyl)-3-methyl-1H-pyrrolo[3,2-c]pyridine]	0	0	0	0	0	0	20	0	10	0	10	10
COC(=O)c1nc(-c2ccc(Cl)c(OC)c2F)nc2c1cc(C)n2Cc1ccco1 [Compound 11-66, 2-(4-Chloro-2-fluoro-3-methoxyphenyl)-7-(2-furanylmethyl)-4-methoxycarbonyl-6-methyl-7H-pyrrolo[2,3-d]pyrimidine]	0	0	0	0	0	0	30	20	10	20	50	10
COC(=O)c1nc(C2CC2)nc2c1NC(c1ccccc1)C(c1ccccc1)N2 (stereo not drawn) [Compound 91-44, 2-cyclopropyl-6,7-diphenyl-4-methoxycarbonyl-5,6,7,8-tetrahydropteridine]	20	10	0	70	30	30	60	50	50	70	90	20
COC(=O)c1nc(Cl)nc2[nH]c(C)cc12 [Compound 1-126, 2-Chloro-4-methoxy-carbonyl-6-methyl-7H-pyrrolo[2,3-d]pyrimidine]	0	0	0	0	0	0	0	0	0	0	0	0
CCOC(=O)c1nc(-c2ccc(Cl)c(OC)c2F)cc2[nH]cc(C)c12 [Compound 22-75, 6-(4-chloro-2-fluoro-3-methoxyphenyl)-4-ethoxycarbonyl-3-methyl-1H-pyrrolo[3,2-c]pyridine]	90	10	0	70	80	10	60	20	50	80	90	10
COCCOCCOC(=O)c1nc(-c2ccc(Cl)c(OC)c2F)nc2[nH]cc(C)c12 [Compound 1-85, 2-(4-Chloro-2-fluoro-3-methoxyphenyl)-4-{2-[(2-methoxy)-ethoxy]-ethoxycarbonyl}-5-methyl-7H-pyrrolo[2,3-d]pyrimidine]	10	0	0	100	70	20	40	60	40	100	90	10
COC(=O)c1nc(-c2ccc(Cl)c(OC)c2F)nc2[nH]c(C)cc12 [Compound 1-66, 2-(4-chloro-2-fluoro-3-methoxyphenyl)-4-methoxycarbonyl-6-methyl-7H-pyrrolo[2,3-d]pyrimidine]	90	40	70	100	100	20	80	80	80	100	100	80
O=C(O)c1nc(C2CC2)nc2c1ccn2Cc1ccccc1[N+](=O)[O-] [Compound 8-1, 4-Carboxy-2-cyclopropyl-7-(2-nitrophenyl-methyl)-7H-pyrrolo[2,3-d]pyrimidine]	0	0	0	0	0	0	40	10	0	0	30	0
COc1c(Cl)ccc(-c2nc3c(c(C(=O)O)n2)NC(c2ccccc2)C(c2ccccc2)N3)c1F (stereo not drawn) [Compound 91-203, 4-Carboxy-2-(4-chloro-2-fluoro-3-methoxyphenyl)-6,7-diphenyl-5,6,7,8-tetrahydropteridine]	10	0	0	0	20	0	10	0	10	10	40	0
COc1c(Cl)ccc(-c2nc(C(=O)O)c3c(C)cn(Cc4ccccc4)c3n2)c1F [Compound 6-63, 7-Benzyl-4-carboxy-2-(4-chloro-2-fluoro-3-methoxyphenyl)-5-methyl-7H-pyrrolo[2,3-d]pyrimidine]	0	0	0	0	0	0	60	40	50	80	70	10
COC(=O)c1nc(-c2ccc(Cl)c(F)c2)nc2[nH]c(C)cc12 [Compound 1-22, 2-(4-Chloro-3-fluorophenyl)-4-methoxycarbonyl-6-methyl-7H-pyrrolo[2,3-d]pyrimidine]	0	0	0	0	0	0	40	0	10	20	30	10
COc1c(Cl)ccc(-c2cc3[nH]cc(C)c3c(C(=O)OCC3CCCO3)n2)c1F (stereo not drawn) [Compound 22-88, 6-(4-Chloro-2-fluoro-3-methoxyphenyl)-3-methyl-4-(tetrahydrofuran-2-yl-methoxycarbonyl)-1H-pyrrolo[3,2-c]pyridine]	50	0	10	100	100	10	60	20	40	80	90	30
